Source: article PMC5803267, “A small molecule inhibitor of Rheb selectively targets mTORC1 signaling” (Nature Communications, 2018)

Tests used:
[1] = tested on: T389pS6K1 in HEK293 cells; experiment: T389pS6K1 in HEK293 cells transfected with WT or constitutively active mTOR mutants; format: cell-based, human; details: HEK293, 30 µM NR1 for 90 min
Description: MCF-7 cells were serum-starved for 16 h and treated with compound for 90 min before cell lysis and Western blot analysis. For insulin-stimulated cells, 100 nM insulin was added 30 min before cell lysis. For EGF-stimulated cells, 100 ng mL^−1 EGF was added 10 min before cell lysis. c Rap1 activity was detected in lysates loaded in vitro with either GDP or GTPγS and treated with NR1 at the indicated concentrations. This was followed by a subsequent pulldown of GST-RalGDS-RBD. Bound Rap1 was detected by Western blot. d Evaluation of NR1 in a LAM patient-derived cell line (TRI102) under replete and serum-starved conditions. For replete conditions, TRI102 cells were treated for 90 min with compound in DMEM + 10% FBS. For serum-starved conditions, TRI102 cells were serum-starved 16 h and then treated for 90 min with compound prior to cell lysis and Western blot analysis. e HEK293 cells co-transfected with the indicated mTOR constructs and HA-GST-S6K1 were starved of amino acids or treated with NR1. […]
To further support Rheb as the target of NR1, we assessed whether NR1 could inhibit ^T389pS6K1 in cells transfected with constitutively active, Rheb-independent double mutants of mTOR originally described by Xu et al.[48]. […]

MCF-7 cells = experiment: Protein synthesis assay (35S-methionine incorporation) in MCF-7 cells; format: cell-based, human; details: MCF-7, 2.5 h compound, 35S-Met label 30 min
Description: Data are plotted as percent decrease in forward scatter. […] Error bars represent standard deviation of the mean of duplicates; graph represents data from one of two separate experiments
Another functional correlate dependent on mTORC1 activity is protein synthesis. […] The functional effects of NR1 on cell size and protein synthesis are consistent with the observed selective inhibition of mTORC1 pathway signaling.
The protein synthesis assay was performed by incubation of MCF7 cells with compounds in MEM + 10% dialyzed FBS for 2.5 h and then incubated in labeling mix (compounds, Met- and Cys-free media, 10% dialyzed FBS, and ^35S protein labeling mix) for 30 min. Cells were lysed, proteins were precipitated, and resuspended pellets were read on a Microbeta 2.

[2] = tested on: mTORC1 activity (S240/244pS6) in kidney; experiment: PD study: feeding-induced mTORC1 activation in kidney; format: in vivo, mouse; details: mice fasted 16 h, 30 mg kg^−1 IP, re-fed 2 h
Description: The selective inhibition of mTORC1 activation by NR1 in vitro and in cell-based systems prompted us to evaluate the effect of this compound on mTORC1 activity in vivo. […] In particular, the plasma concentration of NR1 was sustained over 5 µM for 2 h after IP administration of a 30 mg kg^−1 dose (Supplementary Fig. 10). We therefore carried out a pharmacodynamic (PD) study to evaluate the efficacy of NR1 at inhibiting mTORC1 signaling in vivo. In this experiment, mice were starved overnight to achieve a low basal level of mTORC1 activation (pre-dose). After a 16 h fast, the animals were treated with either vehicle or 30 mg kg^−1 NR1 and allowed to re-feed for 2 h before sacrifice and tissue collection. mTORC1 activity was measured by quantification of ^S240/244pS6 by Western blot analysis with a specific antibody. […]
This study was conducted in accordance with the requirements for the humane care and use of animals set forth in the Animal Welfare Act, the IACUC Guide for the Care and Use of Laboratory Animals, applicable Shanghai and state laws, and regulations and policies of Shanghai ChemPartner Ltd. The animals were not randomized, and the study was not blinded. […] Compound levels in the plasma of treated mice were measured by LC-MS/MS and compared to a standard curve of compound diluted into mouse plasma. […]

## CN(C)C(=O)c1ccc(Cn2c(C(=O)O)cc3c(Br)cc(Sc4ccc(Cl)c(Cl)c4)cc32)cc1 [NR1, 4-bromo-6-(3,4-dichlorophenylthio)-1-(4-(dimethylcarbamoyl)benzyl)-1H-indole-2-carboxylic acid]
[1]
  T389pS6K1 phosphorylation with Rheb-independent mTOR mutants: no impact on pS6K1
  T389pS6K1 phosphorylation with vehicle or WT mTOR: reduces
MCF-7 cells
  protein synthesis: dose-dependently reduce protein synthesis
[2]
  mTORC1 activity (S240/244pS6) in kidney versus vehicle: significantly reduced mTORC1 activity
